Results as given in publication PMC5218480 (PLoS ONE, 2017).

System: MV-4-11 cells
Assay: Gene expression microarray analysis (Affymetrix PrimeView) and GSEA
Format: cell-based, human
Set-up: RFU PODN (11730768_x_at) / Fold change /veh PODN (11730768_x_at) / RFU LINC00158 (11744669_a_at) / Fold change /veh LINC00158 (11744669_a_at) / RFU DUSP10 (11751237_a_at) / Fold change /veh DUSP10 (11751237_a_at) / RFU ID3 (11757404_x_at) / Fold change /veh ID3 (11757404_x_at) / RFU PLEKHG5 (11737974_s_at) / Fold change /veh PLEKHG5 (11737974_s_at) / RFU LRRC4B (11730491_at) / Fold change /veh LRRC4B (11730491_at) / RFU GIMAP4 (11747438_a_at) / Fold change /veh GIMAP4 (11747438_a_at) / RFU KRT8 (11758183_x_at) / Fold change /veh KRT8 (11758183_x_at) / RFU CNN1 (11734310_a_at) / Fold change /veh CNN1 (11734310_a_at) / RFU VPS37D (11726825_at) / Fold change /veh VPS37D (11726825_at) / RFU C10orf10 (11716522_x_at) / Fold change /veh C10orf10 (11716522_x_at) / RFU KIR2DL2 /// KIR2DL4 /// KIR2DL5A /// KIR2DL5B /// KIR2DS1 /// KIR2DS2 /// KIR2DS3 /// KIR2DS4 /// KIR3DL3 /// KIR3DL3 /// KIR3DS1 (11738374_at) / Fold change /veh KIR2DL2 /// KIR2DL4 /// KIR2DL5A /// KIR2DL5B /// KIR2DS1 /// KIR2DS2 /// KIR2DS3 /// KIR2DS4 /// KIR3DL3 /// KIR3DL3 /// KIR3DS1 (11738374_at) / RFU C1QL1 (11718748_at) / Fold change /veh C1QL1 (11718748_at) / RFU TMPRSS4 (11747572_a_at) / Fold change /veh TMPRSS4 (11747572_a_at) / RFU HAMP (11756126_x_at) / Fold change /veh HAMP (11756126_x_at) / RFU RNFT2 (11725882_a_at) / Fold change /veh RNFT2 (11725882_a_at) / RFU NR4A2 (11747474_a_at) / Fold change /veh NR4A2 (11747474_a_at) / RFU ABCC12 (11746883_a_at) / Fold change /veh ABCC12 (11746883_a_at) / RFU TMEM136 (11760407_x_at) / Fold change /veh TMEM136 (11760407_x_at) / RFU CLDN22 /// WWC2 (11732394_at) / Fold change /veh CLDN22 /// WWC2 (11732394_at) / RFU HLA-DPB1 (11760878_x_at) / Fold change /veh HLA-DPB1 (11760878_x_at) / RFU SPINT1 (11716480_a_at) / Fold change /veh SPINT1 (11716480_a_at) / RFU GAP43 (11754022_s_at) / Fold change /veh GAP43 (11754022_s_at) / RFU A4GNT (11735810_at) / Fold change /veh A4GNT (11735810_at) / RFU PRB3 (11715151_x_at) / Fold change /veh PRB3 (11715151_x_at) / RFU TUBB4B (11761932_at) / Fold change /veh TUBB4B (11761932_at) / RFU CAPN14 (11732068_a_at) / Fold change /veh CAPN14 (11732068_a_at) / RFU TMCC2 (11721928_a_at) / Fold change /veh TMCC2 (11721928_a_at) / RFU IRGQ (11745062_a_at) / Fold change /veh IRGQ (11745062_a_at) / RFU FAM174B (11720279_a_at) / Fold change /veh FAM174B (11720279_a_at) / RFU TMPRSS4 (11748680_a_at) / Fold change /veh TMPRSS4 (11748680_a_at) / RFU FAM212B (11763350_a_at) / Fold change /veh FAM212B (11763350_a_at) / RFU PLEKHG5 (11743358_a_at) / Fold change /veh PLEKHG5 (11743358_a_at) / RFU ZSCAN30 (11745921_a_at) / Fold change /veh ZSCAN30 (11745921_a_at) / RFU CMKLR1 (11741424_a_at) / Fold change /veh CMKLR1 (11741424_a_at) / RFU LOC101060620 /// MAPK8IP1 (11723275_at) / Fold change /veh LOC101060620 /// MAPK8IP1 (11723275_at) / RFU SPTSSB (11747773_x_at) / Fold change /veh SPTSSB (11747773_x_at) / RFU PRSS12 (11739890_at) / Fold change /veh PRSS12 (11739890_at) / RFU BIN1 (11741810_x_at) / Fold change /veh BIN1 (11741810_x_at) / RFU WNT11 (11732464_a_at) / Fold change /veh WNT11 (11732464_a_at) / RFU C10orf10 (11716521_a_at) / Fold change /veh C10orf10 (11716521_a_at) / RFU C5orf56 (11738089_at) / Fold change /veh C5orf56 (11738089_at) / RFU CYB561 (11721691_x_at) / Fold change /veh CYB561 (11721691_x_at) / RFU ANKRD19P (11752326_a_at) / Fold change /veh ANKRD19P (11752326_a_at) / RFU OR2T12 /// OR2T33 /// OR2T8 (11738714_s_at) / Fold change /veh OR2T12 /// OR2T33 /// OR2T8 (11738714_s_at) / RFU VCAN (11748164_a_at) / Fold change /veh VCAN (11748164_a_at) / RFU JSRP1 (11732532_at) / Fold change /veh JSRP1 (11732532_at) / RFU KRTAP10-11 (11738290_x_at) / Fold change /veh KRTAP10-11 (11738290_x_at) / RFU MYO3A (11730013_a_at) / Fold change /veh MYO3A (11730013_a_at) / RFU EBF3 (11725865_a_at) / Fold change /veh EBF3 (11725865_a_at) / RFU CAMK2N1 (11719241_x_at) / Fold change /veh CAMK2N1 (11719241_x_at) / RFU C5orf56 (11738088_a_at) / Fold change /veh C5orf56 (11738088_a_at) / RFU OLFML3 (11715873_a_at) / Fold change /veh OLFML3 (11715873_a_at) / RFU LOC100653217 /// NTM (11731650_a_at) / Fold change /veh LOC100653217 /// NTM (11731650_a_at) / RFU MAPK11 (11762145_a_at) / Fold change /veh MAPK11 (11762145_a_at) / RFU FIZ1 (11724087_x_at) / Fold change /veh FIZ1 (11724087_x_at) / RFU OASL (11726364_x_at) / Fold change /veh OASL (11726364_x_at) / RFU SOX15 (11748057_x_at) / Fold change /veh SOX15 (11748057_x_at) / RFU CD79A (11719716_a_at) / Fold change /veh CD79A (11719716_a_at) / RFU HIST1H1D (11736915_at) / Fold change /veh HIST1H1D (11736915_at) / RFU CASKIN2 (11723855_a_at) / Fold change /veh CASKIN2 (11723855_a_at) / RFU LOC730098 (11760151_x_at) / Fold change /veh LOC730098 (11760151_x_at) / RFU OR4N2 (11742367_at) / Fold change /veh OR4N2 (11742367_at) / RFU PRRT2 (11749266_a_at) / Fold change /veh PRRT2 (11749266_a_at) / RFU SNX32 (11753110_a_at) / Fold change /veh SNX32 (11753110_a_at) / RFU CDHR5 (11726645_a_at) / Fold change /veh CDHR5 (11726645_a_at) / RFU RCAN1 (11760418_a_at) / Fold change /veh RCAN1 (11760418_a_at) / RFU FAM167A (11723789_a_at) / Fold change /veh FAM167A (11723789_a_at) / RFU FAM26E (11764081_at) / Fold change /veh FAM26E (11764081_at) / RFU ISYNA1 (11749810_s_at) / Fold change /veh ISYNA1 (11749810_s_at) / RFU ACY1 (11761880_at) / Fold change /veh ACY1 (11761880_at) / RFU 11764098_at / Fold change /veh 11764098_at / RFU SAMD14 (11745864_x_at) / Fold change /veh SAMD14 (11745864_x_at) / RFU NPB (11741838_a_at) / Fold change /veh NPB (11741838_a_at) / RFU TMPRSS6 (11731388_a_at) / Fold change /veh TMPRSS6 (11731388_a_at) / RFU KRTAP10-2 (11738614_at) / Fold change /veh KRTAP10-2 (11738614_at) / RFU ARHGAP8 /// PRR5-ARHGAP8 (11727945_x_at) / Fold change /veh ARHGAP8 /// PRR5-ARHGAP8 (11727945_x_at) / RFU KRTAP5-7 /// NADSYN1 (11734609_at) / Fold change /veh KRTAP5-7 /// NADSYN1 (11734609_at) / RFU RASL12 (11751679_a_at) / Fold change /veh RASL12 (11751679_a_at) / RFU CDKN2B (11736163_a_at) / Fold change /veh CDKN2B (11736163_a_at) / RFU PRF1 (11729649_at) / Fold change /veh PRF1 (11729649_at) / RFU, ZNF638 /// ZNF638-IT1 / Fold change vs veh, ZNF638 /// ZNF638-IT1 / RFU, PANK3 / Fold change vs veh, PANK3 / RFU, SH3YL1 / Fold change vs veh, SH3YL1 / RFU, ZEB2 / Fold change vs veh, ZEB2 / RFU, NRIP1 / Fold change vs veh, NRIP1 / RFU, PTTG1IP / Fold change vs veh, PTTG1IP / RFU, CAPN2 / Fold change vs veh, CAPN2 / RFU, MED14 / Fold change vs veh, MED14 / RFU, SNORA58 / Fold change vs veh, SNORA58 / RFU, C1orf63 / Fold change vs veh, C1orf63 / RFU, LRRFIP1 / Fold change vs veh, LRRFIP1 / RFU, NDUFAF7 / Fold change vs veh, NDUFAF7 / RFU, SLC12A2 / Fold change vs veh, SLC12A2 / RFU, IBTK / Fold change vs veh, IBTK / RFU, ESF1 / Fold change vs veh, ESF1 / Fold change vs veh, TMEM50B / RFU, TAOK1 / Fold change vs veh, TAOK1 / RFU, ACBD3 / Fold change vs veh, ACBD3 / RFU, TMA16 / Fold change vs veh, TMA16 / RFU, RWDD3 / Fold change vs veh, RWDD3 / RFU, BCAT1 / Fold change vs veh, BCAT1 / RFU, EDEM3 / Fold change vs veh, EDEM3 / RFU, TMEM33 / Fold change vs veh, TMEM33 / RFU, WDR75 / Fold change vs veh, WDR75 / RFU, AHCTF1 / Fold change vs veh, AHCTF1 / RFU, TFRC / Fold change vs veh, TFRC / RFU, ZDHHC17 / Fold change vs veh, ZDHHC17 / RFU, NOM1 / Fold change vs veh, NOM1 / RFU, ARL8B / Fold change vs veh, ARL8B / RFU, ZBTB11 / Fold change vs veh, ZBTB11 / RFU, TAMM41 / Fold change vs veh, TAMM41 / RFU, KIAA1704 /// LOC100996395 / Fold change vs veh, KIAA1704 /// LOC100996395 / RFU, ING1 / Fold change vs veh, ING1 / RFU, TRMT61B / Fold change vs veh, TRMT61B / RFU, FUBP3 / Fold change vs veh, FUBP3 / RFU, TP53 / Fold change vs veh, TP53 / RFU, TNKS2 / Fold change vs veh, TNKS2 / RFU, ZFP14 / Fold change vs veh, ZFP14 / RFU, ACTR2 / Fold change vs veh, ACTR2 / RFU, PPP3R1 / Fold change vs veh, PPP3R1 / RFU, PIK3R1 / Fold change vs veh, PIK3R1 / RFU, HNRNPA1 / Fold change vs veh, HNRNPA1 / RFU, RNF170 / Fold change vs veh, RNF170 / RFU, ZNF28 / Fold change vs veh, ZNF28 / RFU, RNGTT / Fold change vs veh, RNGTT / RFU, OGT / Fold change vs veh, OGT / RFU, BRD1 / Fold change vs veh, BRD1 / RFU, MARS / Fold change vs veh, MARS / RFU, ZNF655 / Fold change vs veh, ZNF655 / RFU, FAHD1 / Fold change vs veh, FAHD1 / RFU, BDP1 / Fold change vs veh, BDP1 / RFU, LRRCC1 / Fold change vs veh, LRRCC1 / RFU, ARID1A / Fold change vs veh, ARID1A / RFU, ZNF146 / Fold change vs veh, ZNF146 / RFU, ZNF330 / Fold change vs veh, ZNF330 / RFU, GPN3 / Fold change vs veh, GPN3 / RFU, C9orf123 / Fold change vs veh, C9orf123 / RFU, N4BP2L2 / Fold change vs veh, N4BP2L2 / RFU, ARFIP1 / Fold change vs veh, ARFIP1 / RFU, FAM179B / Fold change vs veh, FAM179B / RFU, BCL10 / Fold change vs veh, BCL10 / RFU, UHRF1BP1L / Fold change vs veh, UHRF1BP1L / RFU, BET1 / Fold change vs veh, BET1 / RFU, CNOT2 / Fold change vs veh, CNOT2 / RFU, ZNF268 / Fold change vs veh, ZNF268 / Fold change vs veh, ZNF507 / RFU, DGCR2 / Fold change vs veh, DGCR2 / RFU, WDSUB1 / Fold change vs veh, WDSUB1 / Fold change vs veh, HSP90B1 /// MIR3652 / RFU, ADSS / Fold change vs veh, ADSS / RFU, GK / Fold change vs veh, GK / RFU, ZNF148 / Fold change vs veh, ZNF148 / RFU, TAF9 / Fold change vs veh, TAF9 / RFU, SLC1A5 / Fold change vs veh, SLC1A5 / RFU, SLMO2 / Fold change vs veh, SLMO2 / RFU, ABCC4 / Fold change vs veh, ABCC4 / RFU, LOC101060439 /// RAP1B / Fold change vs veh, LOC101060439 /// RAP1B / RFU, RFX7 / Fold change vs veh, RFX7 / RFU, GTPBP10 / Fold change vs veh, GTPBP10 / RFU, CNEP1R1 / Fold change vs veh, CNEP1R1 / RFU, BIVM-ERCC5 /// ERCC5 / Fold change vs veh, BIVM-ERCC5 /// ERCC5 / RFU, ILF3 / Fold change vs veh, ILF3 / RFU 11762660_at / Fold change /veh 11762660_at / RFU VCAN (11757783_s_at) / Fold change /veh VCAN (11757783_s_at) / RFU DDX43 (11728927_at) / Fold change /veh DDX43 (11728927_at) / RFU KRT8 (11758188_x_at) / Fold change /veh KRT8 (11758188_x_at) / RFU NKD1 (11759106_at) / Fold change /veh NKD1 (11759106_at) / RFU SRD5A1 (11742802_a_at) / Fold change /veh SRD5A1 (11742802_a_at) / RFU TPSAB1 /// TPSB2 (11721975_s_at) / Fold change /veh TPSAB1 /// TPSB2 (11721975_s_at) / RFU GSTM3 (11746129_a_at) / Fold change /veh GSTM3 (11746129_a_at) / RFU IL23R (11737362_x_at) / Fold change /veh IL23R (11737362_x_at) / RFU TMEM51 (11727254_a_at) / Fold change /veh TMEM51 (11727254_a_at) / RFU PIWIL2 (11732686_x_at) / Fold change /veh PIWIL2 (11732686_x_at) / RFU ORM1 (11744905_x_at) / Fold change /veh ORM1 (11744905_x_at) / RFU CCDC152 (11743942_at) / Fold change /veh CCDC152 (11743942_at) / RFU ECM1 (11717891_a_at) / Fold change /veh ECM1 (11717891_a_at) / RFU IL23R (11748794_a_at) / Fold change /veh IL23R (11748794_a_at) / RFU TNFAIP8L3 (11732012_x_at) / Fold change /veh TNFAIP8L3 (11732012_x_at) / RFU MBOAT4 (11741988_at) / Fold change /veh MBOAT4 (11741988_at) / RFU 11764193_at / Fold change /veh 11764193_at / RFU TMEM53 (11763286_at) / Fold change /veh TMEM53 (11763286_at) / RFU MAGEB2 (11727129_at) / Fold change /veh MAGEB2 (11727129_at) / RFU TMEM200A (11744735_a_at) / Fold change /veh TMEM200A (11744735_a_at) / RFU CCDC152 (11751479_a_at) / Fold change /veh CCDC152 (11751479_a_at) / RFU FAM211A (11726209_a_at) / Fold change /veh FAM211A (11726209_a_at) / RFU RGS16 (11746705_a_at) / Fold change /veh RGS16 (11746705_a_at) / RFU VCAN (11755009_s_at) / Fold change /veh VCAN (11755009_s_at) / RFU RHOB (11743442_s_at) / Fold change /veh RHOB (11743442_s_at) / RFU RGS16 (11720943_a_at) / Fold change /veh RGS16 (11720943_a_at) / RFU RGS16 (11720944_at) / Fold change /veh RGS16 (11720944_at) / RFU, VPS4B / Fold change vs veh, VPS4B / RFU, CREB1 / Fold change vs veh, CREB1 / RFU, DNAJC13 / Fold change vs veh, DNAJC13 / RFU, GNAQ / Fold change vs veh, GNAQ / RFU, CDK5R1 / Fold change vs veh, CDK5R1 / RFU, ZRANB3 / Fold change vs veh, ZRANB3 / RFU, CUL4A / Fold change vs veh, CUL4A / RFU, CCNY / Fold change vs veh, CCNY / RFU, UFL1 / Fold change vs veh, UFL1 / RFU, COG3 / Fold change vs veh, COG3 / RFU, DIAPH2 / Fold change vs veh, DIAPH2 / RFU, SKA2 / Fold change vs veh, SKA2 / RFU, AFF3 / Fold change vs veh, AFF3 / RFU, LMF1 / Fold change vs veh, LMF1 / RFU, IPO11 / Fold change vs veh, IPO11 / RFU, DFFB / Fold change vs veh, DFFB / RFU, FOXP1 / Fold change vs veh, FOXP1 / RFU, CARD8 / Fold change vs veh, CARD8 / RFU, STRN3 / Fold change vs veh, STRN3 / RFU, ADK / Fold change vs veh, ADK / RFU, RASSF2 / Fold change vs veh, RASSF2 / RFU, WIPF1 / Fold change vs veh, WIPF1 / RFU, LARP1B / Fold change vs veh, LARP1B / RFU, RASA1 / Fold change vs veh, RASA1 / RFU, RB1 / Fold change vs veh, RB1 / RFU, PPFIA1 / Fold change vs veh, PPFIA1 / RFU, MAT2A / Fold change vs veh, MAT2A / RFU, CCT5 / Fold change vs veh, CCT5 / RFU, WDR92 / Fold change vs veh, WDR92 / RFU, CUX1 / Fold change vs veh, CUX1 / RFU, TTC7A / Fold change vs veh, TTC7A / RFU, TMEM135 / Fold change vs veh, TMEM135 / RFU, DEPTOR / Fold change vs veh, DEPTOR / RFU, CPM / Fold change vs veh, CPM / RFU, DNAJB6 / Fold change vs veh, DNAJB6 / RFU, CACNA2D3 / Fold change vs veh, CACNA2D3 / RFU, DTX4 / Fold change vs veh, DTX4 / RFU, TFCP2 / Fold change vs veh, TFCP2 / RFU, GMCL1 /// GMCL1P1 / Fold change vs veh, GMCL1 /// GMCL1P1 / RFU, AEBP2 / Fold change vs veh, AEBP2 / RFU, SNHG1 /// SNORD22 /// SNORD25 /// SNORD26 /// SNORD27 /// SNORD28 /// SNORD29 /// SNORD31 / Fold change vs veh, SNHG1 /// SNORD22 /// SNORD25 /// SNORD26 /// SNORD27 /// SNORD28 /// SNORD29 /// SNORD31 / Fold change (Aza/veh), C12orf56 (ProbeSet 11735607_a_at) / Fold change (ACY-1035/veh), C12orf56 (ProbeSet 11735607_a_at) / Fold change (Aza/veh), FGFR1OP (ProbeSet 11751329_s_at) / Fold change (ACY-1035/veh), FGFR1OP (ProbeSet 11751329_s_at) / Fold change (Aza/veh), VPS36 (ProbeSet 11739960_a_at) / Fold change (ACY-1035/veh), VPS36 (ProbeSet 11739960_a_at) / RFU SYPL1 (11715823_x_at) / Fold change /veh SYPL1 (11715823_x_at) / RFU IGFBP7 (11715501_s_at) / Fold change /veh IGFBP7 (11715501_s_at) / RFU REEP3 (11722064_at) / Fold change /veh REEP3 (11722064_at) / RFU IGLL1 (11728026_x_at) / Fold change /veh IGLL1 (11728026_x_at): dose or concentration left out as unconfirmed
Settings: ProbeSet 11722022_s_at; LIST D

Nc1ncn([C@@H]2O[C@H](CO)[C@@H](O)[C@H]2O)c(=O)n1 [azacitidine]
RFU, CDK5R1: 40.46 RFU
